Measured values taken from US12465605B2, “Methods and materials for gender-dependent treatment of cardiovascular dysfunction” (Mayo Foundation for Medical Education and Research, priority 2019, dated 2025).

How the values were obtained:
Type in all cases: cell-based
[1] = test system: Osterix (BMP target gene); experiment: Osterix mRNA in aortic valve interstitial cells treated with sGC agonists; conditions: for Osterix expression: 24 hours
Procedure: (§1) In vitro cell culture studies: Aortic valve interstitial cells were isolated using an outgrowth method, and were expanded in DMEM/F-10 medium with 10% FBS and studied in passages 2-10. Cells were treated for 24 hours under each experimental condition, at which point mRNA was harvested using lysis buffer. After mRNA isolation and reverse transcription, gene expression was measured using quantitative real-time RT-PCR and Taqman primers. Changes in gene expression were assessed by the ddCt method and expressed as fold-change normalized to control conditions.
In vitro studies were conducted in aortic valve interstitial cells to determine the effects of several sGC agonists on mRNA levels of Osterix, a BMP target gene. Cells were treated with nelociguat, vericiguat, lificiguat, or BAY41-8543, and Osterix mRNA levels were determined. Nelociguat and BAY41-8543 were used at concentrations ranging from 1 nM to 10 μM, while vericiguat and lificiguat were used at concentrations ranging from 1 nM to 1 μM.

sGC = target: T1, sGC (Mus musculus, UniProt O54865); experiment: sGC signaling (phospho-VASP239) in mouse aortic valve interstitial cells; conditions: otherwise naïve mVICs, vs vehicle-treated cells
T1 construct: endogenous in cells; host or cells: primary mouse aortic valve interstitial cells (mVICs) from C57BL6/J mice
T1 sequence (O54865 1-620): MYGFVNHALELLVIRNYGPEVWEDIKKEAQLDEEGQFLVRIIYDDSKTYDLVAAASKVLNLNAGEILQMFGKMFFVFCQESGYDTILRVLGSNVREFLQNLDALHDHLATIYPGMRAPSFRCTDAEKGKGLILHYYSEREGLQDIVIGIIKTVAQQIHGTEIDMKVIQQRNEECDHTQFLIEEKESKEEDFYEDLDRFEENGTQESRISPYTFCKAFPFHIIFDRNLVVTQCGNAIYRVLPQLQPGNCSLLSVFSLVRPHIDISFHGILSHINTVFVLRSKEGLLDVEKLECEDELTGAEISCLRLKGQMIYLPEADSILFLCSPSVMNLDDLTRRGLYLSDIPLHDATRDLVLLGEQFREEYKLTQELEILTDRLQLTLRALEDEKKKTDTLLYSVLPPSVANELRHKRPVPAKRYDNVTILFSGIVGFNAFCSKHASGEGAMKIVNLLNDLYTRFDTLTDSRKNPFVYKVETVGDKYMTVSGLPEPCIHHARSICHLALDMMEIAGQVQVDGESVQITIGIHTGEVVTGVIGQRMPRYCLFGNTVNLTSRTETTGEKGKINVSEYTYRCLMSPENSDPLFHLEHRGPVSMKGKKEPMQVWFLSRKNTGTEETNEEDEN
T1 sequence (Q9ERL9 1-691 partner): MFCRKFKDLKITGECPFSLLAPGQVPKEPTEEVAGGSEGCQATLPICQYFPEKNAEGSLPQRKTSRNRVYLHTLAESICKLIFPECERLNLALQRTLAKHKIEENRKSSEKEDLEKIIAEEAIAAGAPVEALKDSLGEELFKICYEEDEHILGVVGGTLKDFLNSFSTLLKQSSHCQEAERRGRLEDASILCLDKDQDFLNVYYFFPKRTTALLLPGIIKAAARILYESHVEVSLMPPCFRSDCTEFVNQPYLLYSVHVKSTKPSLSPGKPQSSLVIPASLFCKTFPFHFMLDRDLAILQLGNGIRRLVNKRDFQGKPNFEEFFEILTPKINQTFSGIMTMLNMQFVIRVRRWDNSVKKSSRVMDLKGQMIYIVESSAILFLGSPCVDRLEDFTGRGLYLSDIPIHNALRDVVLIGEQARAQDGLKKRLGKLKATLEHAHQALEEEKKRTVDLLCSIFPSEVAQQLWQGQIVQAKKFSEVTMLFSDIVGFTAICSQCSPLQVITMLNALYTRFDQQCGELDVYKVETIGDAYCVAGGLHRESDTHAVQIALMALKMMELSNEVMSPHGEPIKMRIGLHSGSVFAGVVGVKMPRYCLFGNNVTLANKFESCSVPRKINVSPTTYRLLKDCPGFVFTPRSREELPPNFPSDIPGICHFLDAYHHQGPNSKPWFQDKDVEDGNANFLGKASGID
Procedure: To confirm that ataciguat effectively activated sGC in cells, mouse aortic valve interstitial cells (mVICs) were isolated from C57BL6/J mice treated with ataciguat or other sGC agonists as internal controls. […] To determine whether ataciguat could attenuate signaling cascades central to the initiation and progression of valve calcification in vitro, cells were treated with BMP2 with or without ataciguat. In these studies, ataciguat reduced phospho-SMAD1/5/8 signaling (e.g., canonical BMP signaling) as well as expression of osteogenic genes induced by BMP2 (e.g., osterix).

[2] = test system: LPA-induced BMP signaling; experiment: LPA-induced BMP signaling (Osterix mRNA) in aortic valve interstitial cells; conditions: treatment with 18:0 lyso-PA alone
Procedure: as §1
Additional studies were conducted in aortic valve interstitial cells to examine the effects of ataciguat on LPA-induced BMP signaling and BMP target gene expression. Cells were treated with 18:0 lyso-PA, with or without ataciguat, and Osterix mRNA levels were determined.

Question: What does the source list for `Nc1nc(-c2nn(Cc3ccccc3F)c3ncccc23)nc(N)c1N1CCOCC1` [BAY41-8543, 2-[1-[(2-fluorophenyl)methyl]-1H-pyrazolo[3,4-b]pyridin-3-yl]-5-(4-morpholinyl)-4,6-pyrimidinediamine]?
Answer: Osterix expression ([1]; at 10 μM): highly efficacious; Osterix expression ([1]; tested 1 nM to 10 μM): dose-dependent reductions

Question: Which “sGC-dependent signaling (phospho-VASP^239 levels)” value (sGC) does the source give for `CCN(CC)/[N+]([O-])=N/O.CCNCC` [DEA-NONOATE] here?
Answer: increased phospho-VASP^239 levels to a similar extent

Question: For `OCc1ccc(-c2nn(Cc3ccccc3)c3ccccc23)o1` [lificiguat], which Osterix expression ([1]; tested 1 nM to 1 μM) is on record?
Answer: lose efficacy at higher concentrations

Question: Which “concentration that may be cytotoxic” value ([1]; suggested from loss of effect at the highest concentration) does the source give for `COC(=O)Nc1c(N)nc(-c2nn(Cc3ccccc3F)c3ncccc23)nc1N` [nelociguat, methyl (4,6-diamino-2-(1-(2-fluorobenzyl)-1H-pyrazolo[3,4-b]pyridin-3-yl)pyrimidin-5-yl)carbamate] here?
Answer: ≥ 10 µM

Question: Which Osterix expression ([1]; tested 1 nM to 1 μM) does the source give for `COC(=O)Nc1c(N)nc(-c2nn(Cc3ccccc3F)c3ncc(F)cc23)nc1N` [vericiguat, methyl (4,6-diamino-2-(5-fluoro-1-(2-fluorobenzyl)-1H-pyrazolo[3,4-b]pyridin-3-yl)pyrimidin-5-yl)carbamate] here?
Answer: only at the highest dose tested

Question: For lysophosphatidic acid [18:0 lyso-PA], which “expression of Osterix” value [2] is on record?
Answer: increased expression
